Legend:
[1] = system: normal human umberical vascular endothelial cells; test: Inhibition of angiogenesis (lumen formation in vascular endothelial cells); type: cell-based; conditions: 18 hours, compared with the control, number rises with inhibition of lumen formation
Protocol: Inhibition of Angiogenesis
The inhibition of angiogenesis was evaluated by using the inhibition of lumen formation in vascular endothelial cell as an index. To be specific, normal human umberical vascular endothelial cells (KURABO […] LTD.) were suspended in E-GMUV medium at 5.5×10^4 cells/ml and 400 μl therefrom was added on matrigel plate (EHS sarcoma-derived reconstructed basement membrane, Collaborative Biomedical Products). Then, the test compound (1 mM solution, 4 μl) was added and the cells were incubated at 37° C. under 5% CO2 gas for 18 hours. After the completion of the incubation, the number of lumen per predetermined area was counted under a microscope. Inasmuch as the number of lumen increases by the inhibition of lumen formation, the test compound was evaluated by comparison of the number of lumen with the control.

[2] = system: Bovine Aorta Thoracia Rho Kinase; test: Rho kinase inhibitory action (inhibition of bovine aorta thoracia Rho kinase); type: biochemical
Protocol: Rho Kinase Inhibitory Action (Inhibition of Bovine Aorta Thoracia Rho Kinase)
The Rho kinase was prepared from bovine aorta of thorax by partial purification as in the following. The artery was minced and homogenized with a 9-fold amount of 50 mM Tris-hydroxymethylaminomethane (Tris) (pH=7.4), 1 mM dithiothreitol, 1 mM EGTA, 1 mM EDTA, 100 μM p-amidinophenylmethylsulfonyl fluoride, 5 μM E-64, 5 μM leupeptine and 5 μM pepstatin A. The homogenate was centrifuged (10,000×g, 30 minutes) to give supernatant. The supernatant was adsorbed onto a hydroxyapatite column. The column was washed with 0.2M phosphate buffer (pH=6.8). The standard product of Rho kinase was eluted with 0.4M phosphate buffer (pH=6.8). The Rho kinase was assayed as follows.
A reaction mixture (total amount 50 μl) containing 50 mM Tris, 1 mM EDTA, 5 mM MgCl2, 50 μg/ml histone, 10 μM GTPγS, 100 μg/ml Rho, 2 μM [^32P]ATP, the Rho kinase (3 μl) prepared in the above and the test compound was reacted at 30° C. for 5 minutes. The reaction was terminated by the addition of 25% trichloroacetic acid (TCA) solution (1 ml) and the mixture was stood at 4° C. for 30 minutes. Then, the mixture was filtered through a membrane filter (HAWP type, Millipore), and the radioactivity of the filter was counted on a liquid scintillation counter. The inhibitory action of the test compound was calculated from the following formula based on the comparison of the radioactivity with the sample without the test compound (control).

[3] = system: CEM cells (human T cell type established cell); test: Inhibition of VLA integrin activation (phorbol ester-induced adhesion of CEM cells to fibronectin); type: cell-based; conditions: CCRF-CEM, concentration 100 μM, PMA-induced adhesion, read-out: Adhesion induction inhibition (%)
Protocol: Inhibition of VLA (Very Late Antigen) Integrin Activation
As the index of the activation by VLA integrin, phorbol ester-induced adhesion of CEM cells (human T cell type established cell) to fibronectin, which is a ligand of VIA integrin, was measured. The inhibitory action on the induced adhesion by the test compound was determined by the following method.
CEM cells were washed with RPMI1640 medium containing 0.5% bovine serum albumin (BSA), 10 mM HEPES, 2 mM L-glutamin, 1 mM sodium pyruvate, 60 μg/ml kanamycin sulfate and 1.5 mg/ml sodium hydrogencarbonate (hereinafter this medium is referred to as culture solution) and suspended in this medium for use in the following experiment. To each well of a 96 well plate coated with human fibronectin were added CEM cells (5×10^4) and the test compound dissolved in the culture solution (final concentration 1-100 μM) to the amount of 100 μl, and the plate was stood at 37° C. for 1 hour. Then, PMA (phorbol 12-myristate 13-acetate, TPA; final concentration 10 ng/ml) and the test compound were added to the amount of 200 μl, and the plate was stood at 37° C. for 30 minutes. Each well was washed twice with the culture solution (200 μL) at 37° C., and the LDH (lactate dehydrogenase) activity of the cells adhered to the plate was determined, whereby the amount of the adhered cell was measured. Based on the results obtained by the above-mentioned method, the inhibitory action of the test compound on the induced adhesion was calculated by the following formula The results are shown in Table 6. Inhibition (%) of adhesion induction=(a−b)/(a−c)×100 • a=number of cells adhered with the addition of PMA • b=number of cells adhered with the addition of test compound and PMA • c=number of cells adhered without stimulation

[4] = system: thoractic aorta ring contracted with phenylephrine; test: Vasodilating action on phenylephrine-contracted thoracic aorta rings; conditions: Oryctolagus cuniculus; rabbit aortic ring, phenylephrine 10^−6 M contraction; concentration for 50% relaxation; read-out: Vasorelaxing action
Protocol: Male rabbits (body weight 1.9-3.0 kg) were anesthetized with pentobarbital sodium and exsanguinated, whereafter thoractic aorta was removed. An about 2 mm width aortic ring samples were prepared and hung in a Magnus bath (40 ml) filled with Krebs-Henseleit solution (37° C., NaCl 117 mM; KCl 4.7 mM; CaCl2 2.5 mM; MgSO4 1.2 mM; NaHCO3 24.8 mM; KH2PO4 1.2 mM; glucose 11.0 mM) at a load of 2 g. The Magnus bath was constantly bubbled with a mixed gas (95% O2+5% CO2 gas). The tension of the preparation was measured with an isomeric transducer (TB-611T, Nippon Koden). The preparation was contracted with phenylephrine (10^−6 M) and, after the contraction was stabilized, the test compound was added accumulatively and relaxing action was observed.

mouse femoral bone = test: Inhibition of bone resorption (in vitro), mouse femoral bone; conditions: 144 h, 6 days incubation of ICR mouse femoral bone
Summary of the method: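 Femurs from 3–6-week male ICR mice, marrow flushed, cultured 6 days in F12 with 10% FBS under 5% CO2 with test compound (DMSO-dissolved; DMSO-only controls). Calcium released into supernatant measured by o-cresolphthalein chelate method; inhibition calculated against untreated bone, n=4 per group.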

| SMILES | Number of lumen (10 μM) [1] | Inhibition (%) ([2]; test compound 1 μM) | Inhibition (%) ([2]; test compound 10 μM) | inhibition at 100 µM [3] | IC50 [4] | inhibition at 100 µM (mouse femoral bone) |
| --- | --- | --- | --- | --- | --- | --- |
| CC(N)[C@H]1CC[C@H](C(=O)Nc2ccnc3[nH]ccc23)CC1 (single isomer, unassigned; (+)) [Compound 109.2HCl, (+)-trans-N-(1H-pyrrolo[2,3-b]pyridin-4-yl)-4-(1-aminoethyl)cyclohexanecarboxamide] | 153% | 81% | 100% | 67% | 100 nM | 42.6% |
| CC(N)[C@H]1CC[C@H](C(=O)Nc2ccncc2)CC1 (single isomer, unassigned; (+)) [Compound 80.2HCl.H2O, (+)-trans-4-(1-aminoethyl)-1-(4-pyridylcarbamoyl)cyclohexane] | 174% | – | 100% | 70% | 700 nM | 40.9% |
